How the values were obtained:
KB 3-1 = assay: Reversal of resistance to paclitaxel-induced cytotoxicity in human KB 3-1 cells assessed as reduction in paclitaxel IC50 at 4 uM preincubated for 4 hrs followed by paclitaxel addition and measured after 72 hrs by MTT assay (reference value: 4.54 +/- 1.59 nM); assay type: functional, cell-based
KB-C2 = assay: Reversal of resistance to paclitaxel-induced cytotoxicity in human KB-C2 cells assessed as reduction in paclitaxel IC50 at 4 uM preincubated for 4 hrs followed by paclitaxel addition and measured after 72 hrs by MTT assay (reference value: 1886.37 +/- 243.05 nM); assay type: functional, cell-based
HEK293 [1] = assay: Reversal of resistance to paclitaxel-induced cytotoxicity in human HEK293/pcDNA3.1 cells assessed as reduction in paclitaxel IC50 at 4 uM preincubated for 4 hrs followed by paclitaxel addition and measured after 72 hrs by MTT assay (reference value: 1.93 +/- 0.06 nM); assay type: functional, cell-based
HEK293 [2] = assay: Reversal of resistance to paclitaxel-induced cytotoxicity in human HEK293/ABCB1 cells assessed as reduction in paclitaxel IC50 at 4 uM preincubated for 4 hrs followed by paclitaxel addition and measured after 72 hrs by MTT assay (reference value: 91.40 +/- 23.32 nM); assay type: functional, cell-based
SW-620 [3] = assay: cells; conditions: Homo sapiens
SW-620 [4] = assay: cells; conditions: Homo sapiens; remark: listed apart in the source
SW-620 [5] = assay: Antitumor activity against human SW-620/AD300 cells xenografted in BALB/c nude mouse assessed as tumor growth inhibition at 5 mg/kg, iv administered once ever 3 days for 21 days; assay type: functional; set-up: scale not given: the % may be the effect or the level left
Mus musculus [6] = assay: Toxicity in BALB/c mouse xenografted with human SW-620/AD300 cells assessed as change in body weight at 5 mg/kg, iv administered once every 3 days; assay type: organism-based; conditions: in vivo, 72 h, time 3 day
Mus musculus [7] = assay: Toxicity in BALB/c mouse xenografted with human SW-620/AD300 cells assessed as mortality at 5 mg/kg, iv administered once every 3 days; assay type: organism-based; conditions: in vivo, 72 h, time 3 day

SMILES	IC50 (KB 3-1) [nM]	IC50 (KB-C2) [nM]	IC50 (HEK293 [1]) [nM]	IC50 (HEK293 [2]) [nM]	IC50 (SW-620 [3]) [nM]	IC50 (SW-620 [4]) [nM]	Activity (SW-620 [5]) [%]	Activity (Mus musculus [6])	Activity (Mus musculus [7])
COc1ccc(CCN(C)CCCC(C#N)(c2ccc(OC)c(OC)c2)C(C)C)cc1OC (centres undefined)	3.84	7.05	1.62	10400	300	7.11	–	–	–
CC(=O)O[C@H]1C(=O)[C@@]2(C)[C@H]([C@H](OC(=O)c3ccccc3)[C@]3(O)C[C@H](OC(=O)[C@H](O)[C@@H](NC(=O)c4ccccc4)c4ccccc4)C(C)=C1C3(C)C)[C@]1(OC(C)=O)CO[C@@H]1C[C@@H]2O [PACLITAXEL]	–	–	–	–	–	–	32	Non-Toxic	Non-Toxic
